Experimental data from ChEMBL document CHEMBL1140687, “Quinazoline derivatives as MC-I inhibitors: evaluation of myocardial uptake using Positron Emission Tomography in rat and non-human primate” (Bioorg Med Chem Lett, 2007).
Values belong to the molecule of their own block, whether it stands above or below them.

Legend:
[1] = Inhibition of MC1 by NADH-DB reductase assay; set-up: species or system Homo sapiens
Liver [2] = test: Biodistribution in Sprague-Dawley rat liver at 15 uCi, iv after 120 mins; type: ADME, organism-based; conditions: in vivo, 2 h
Spleen [3] = test: Biodistribution in Sprague-Dawley rat spleen at 15 uCi, iv after 120 mins; type: ADME, organism-based; conditions: in vivo, 2 h
Kidney [4] = test: Biodistribution in Sprague-Dawley rat kidney at 15 uCi, iv after 120 mins; type: ADME, organism-based; conditions: in vivo, 2 h
Rattus norvegicus [5] = test: Biodistribution in Sprague-Dawley rat urine at 15 uCi, iv after 120 mins; type: ADME, organism-based; conditions: in vivo, 2 h
Muscle tissue [6] = test: Biodistribution in Sprague-Dawley rat muscle at 15 uCi, iv after 120 mins; type: ADME, organism-based; conditions: in vivo, 2 h
Nucleic Acid [7] = test: Ratio of drug uptake in heart to liver of Sprague-Dawley rat at 30 mins; type: ADME; conditions: in vivo, 0.5 h
Femur [8] = test: Biodistribution in Sprague-Dawley rat femur at 15 uCi, iv after 120 mins; type: ADME, organism-based; conditions: in vivo, 2 h
Nucleic Acid [9] = test: Ratio of drug uptake in heart to lung of Sprague-Dawley rat at 30 mins; type: ADME; conditions: in vivo, 0.5 h
Nucleic Acid [10] = test: Ratio of drug uptake in heart to lung of Sprague-Dawley rat at 60 mins; type: ADME; conditions: in vivo, 1 h
Nucleic Acid [11] = test: Ratio of drug uptake in heart to liver of Sprague-Dawley rat at 60 mins; type: ADME; conditions: in vivo, 1 h
Nucleic Acid [12] = test: Ratio of drug uptake in heart to femur of Sprague-Dawley rat at 60 mins; type: ADME; conditions: in vivo, 1 h
Heart [13] = test: Biodistribution in Sprague-Dawley rat heart at 15 uCi, iv after 30 mins; type: ADME, organism-based; conditions: in vivo, 0.5 h
Blood [14] = test: Biodistribution in Sprague-Dawley rat blood at 15 uCi, iv after 30 mins; type: ADME, organism-based; conditions: in vivo, 0.5 h
Lung [15] = test: Biodistribution in Sprague-Dawley rat lung at 15 uCi, iv after 30 mins; type: ADME, organism-based; conditions: in vivo, 0.5 h
Liver [16] = test: Biodistribution in Sprague-Dawley rat liver at 15 uCi, iv after 30 mins; type: ADME, organism-based; conditions: in vivo, 0.5 h
Spleen [17] = test: Biodistribution in Sprague-Dawley rat spleen at 15 uCi, iv after 30 mins; type: ADME, organism-based; conditions: in vivo, 0.5 h
Kidney [18] = test: Biodistribution in Sprague-Dawley rat kidney at 15 uCi, iv after 30 mins; type: ADME, organism-based; conditions: in vivo, 0.5 h
Rattus norvegicus [19] = test: Biodistribution in Sprague-Dawley rat urine at 15 uCi, iv after 30 mins; type: ADME, organism-based; conditions: in vivo, 0.5 h
Muscle tissue [20] = test: Biodistribution in Sprague-Dawley rat muscle at 15 uCi, iv after 30 mins; type: ADME, organism-based; conditions: in vivo, 0.5 h
Femur [21] = test: Biodistribution in Sprague-Dawley rat femur at 15 uCi, iv after 30 mins; type: ADME, organism-based; conditions: in vivo, 0.5 h
Heart [22] = test: Biodistribution in Sprague-Dawley rat heart at 15 uCi, iv after 120 mins; type: ADME, organism-based; conditions: in vivo, 2 h
Blood [23] = test: Biodistribution in Sprague-Dawley rat blood at 15 uCi, iv after 120 mins; type: ADME, organism-based; conditions: in vivo, 2 h
Lung [24] = test: Biodistribution in Sprague-Dawley rat lung at 15 uCi, iv after 120 mins; type: ADME, organism-based; conditions: in vivo, 2 h

SMILES: OCCCCc1ccc(CCOc2ncnc3ccccc23)cc1
IC50 [1]: 22.4 nM

SMILES: FCCCCCc1ccc(CCOc2ncnc3ccccc23)cc1
IC50 [1]: 11.3 nM

SMILES: CCCC(F)c1ccc(CCOc2ncnc3ccccc23)cc1 (configuration not stated)
IC50 [1]: 19.3 nM

SMILES: OCCCCc1ccc(COc2ncnc3ccccc23)cc1
IC50 [1]: 414 nM

SMILES: CCCC(O)c1ccc(CCOc2ncnc3ccccc23)cc1 (configuration not stated)
IC50 [1]: 21.7 nM

SMILES: [18F]CCCCCc1ccc(CCOc2ncnc3ccccc23)cc1
Drug uptake (Liver [2]): 0.44 % ID/g
Drug uptake (Spleen [3]): 0.07 % ID/g
Drug uptake (Kidney [4]): 0.68 % ID/g
Drug uptake (Rattus norvegicus [5]): 4.44 % ID/g
Drug uptake (Muscle tissue [6]): 0.12 % ID/g
Ratio (Nucleic Acid [7]): 23
Drug uptake (Femur [8]): 0.65 % ID/g
Ratio (Nucleic Acid [9]): 11.3
Ratio (Nucleic Acid [10]): 2.5
Ratio (Nucleic Acid [11]): 5.7
Ratio (Nucleic Acid [12]): 3.6
Drug uptake (Heart [13]): 3.22 % ID/g
Drug uptake (Blood [14]): 0.08 % ID/g
Drug uptake (Lung [15]): 0.28 % ID/g
Drug uptake (Liver [16]): 1.29 % ID/g
Drug uptake (Spleen [17]): 0.19 % ID/g
Drug uptake (Kidney [18]): 1.99 % ID/g
Drug uptake (Rattus norvegicus [19]): 0.5 % ID/g
Drug uptake (Muscle tissue [20]): 0.08 % ID/g
Drug uptake (Femur [21]): 0.19 % ID/g
Drug uptake (Heart [22]): 2.5 % ID/g
Drug uptake (Blood [23]): 0.06 % ID/g
Drug uptake (Lung [24]): 0.11 % ID/g

SMILES: CC(C)(C)c1ccc(CCOc2ncnc3ccccc23)cc1 [FENAZAQUIN]
IC50 [1]: 4 nM

More lines, now with the values ahead:

IC50 [1]: 241 nM
SMILES: CC(C)(C)c1ccc(CNc2ncnc3ccccc23)cc1

IC50 [1]: 37.5 nM
SMILES: CCCCc1ccc(CCOc2ncnc3ccccc23)cc1

IC50 [1]: 1000 nM
SMILES: CCCCc1ccc(COc2ncnc3ccccc23)cc1
